Source: EPA's ToxValDB 9.5 (doi:10.2903/j.efsa.2009.327r)
In brackets after ≈: the same amount, converted by molar mass.

Legend:
Daphnia magna = conditions: chronic/long-term; duration: 21 days; reproduction
Aphidius rhopalosiphi = conditions: acute; duration: 7 days; mortality
Oncorhynchus mykiss = conditions: acute; duration: 96 hours; mortality
Pimephales promelas = conditions: chronic/long-term; duration: 35 days; growth
Bibionidae = conditions: chronic/long-term, duration: 28 days
Tagia sp. = conditions: acute; duration: 14 days; mortality
Apis mellifera = conditions: acute, mortality

CCCN(CCC)c1c([N+](=O)[O-])cc(C(F)(F)F)cc1[N+](=O)[O-] [Trifluralin] was tested, and the LD50 (Rattus norvegicus; acute, oral, mortality) was > 5000 mg/kg, the LOAEL (Rattus norvegicus; chronic, duration: 2 years, Fischer 344, histopathology: neoplastic) was 30 mg/kg-day and the NOAEL (Rattus norvegicus; reproduction developmental, reproduction) was 148 mg/kg-day. It also gave an NOAEL (Rattus norvegicus; subchronic, duration: 90 days, oral) of 2.6 mg/kg-day, an NOEC (Daphnia magna) of 0.0507 mg/L and an LEL (Aphidius rhopalosiphi) of 1200 g/ha. The LC50 (Colinus virginianus; acute, oral, diet, mortality) was 574 mg/kg-day, the LD50 (Colinus virginianus; acute, oral, mortality) was > 2250 mg/kg and the NOEC (Colinus virginianus; reproduction developmental) was 103 mg/kg-day. For the same molecule, the LC50 (Oncorhynchus mykiss) was 0.088 µg/mL (≈ 0.262 µM), the NOEC (Pimephales promelas) was 0.0003 mg/L and the NOEC (Bibionidae; development) was 0.25 mg/L. For the same molecule, the NOEC (Bibionidae; mortality) was 810 mg/kg, the LC50 (Tagia sp.) was > 1000 mg/kg and the LD50 (Apis mellifera; duration: 48 hours, dermal) was > 100 µg/piece. The LD50 (Apis mellifera; oral, unspecified) was > 80 µg/piece.
